Reference: US20070059687A1, “Process for evaluating phagocytotic function and use thereof” (priority 2001, published 2007)

What was measured:
Micrococcus luteus = assay: Lysis evaluated by decrease in turbidity at 600 nm; assay type: cell-based; conditions: lysozyme 10,000 unit/ml
Description: (§1) Enterococcus faecalis was inoculated in 50 ml of the aforementioned BHI liquid medium, and cultured at 37° C. for 8 hours or longer. This culture liquid was centrifuged at 4° C. for 10 minutes at 2,000×g to collect the bacteria, followed by subjecting to a heat treatment in an autoclave (120° C., for 10 minutes) after suspending in PBS. Next, the suspension was centrifuged at 4° C. for 10 minutes at 2,000×g, and the supernatant was discarded. Precipitates were suspended in 1 ml of PBS, and thereafter, subjected to freeze-drying. This freeze-dried sample was suspended in 5 mmol/l Tris-hydrochloric acid (pH 6.0), 2 mmol/l magnesium chloride containing 0 to 10% DMSO to give the samples for N-acetylmuramidase. Further, Micrococcus luteus (JCM1464) was inoculated in 5 ml of BHI liquid medium (supra), and cultured at 37° C. for 8 hours or longer. The cultured bacterial liquid was centrifuged at 4° C. for 10 minutes at 2,000×g to collect the bacteria. After discarding the supernatant, and suspending and washing the bacterial pellet with 5 ml of PBS, centrifugation was conducted once again at 4° C. for 10 minutes at 2,000×g to collect the bacteria. […] Enzymatic activity was evaluated on the basis of the decrease in turbidity of the sample at the absorbance of 600 nm using a microplate reader. […] Additionally, no decrease in enzymatic activity was found with DMSO at the concentration of 2% or less. […] The results are show in FIG. 4(a) to (c) and Table 3 below.

[1] = test system: Staphylococcus epidermidis; assay: Lysis evaluated by decrease in turbidity at 600 nm; assay type: cell-based; conditions: lysostafin 50 unit/ml
Description: (§2) Conditions for the enzyme to lyse Staphylococcus aureus (ATCC 12600), Staphylococcus epidermidis (ATCC 14990), Pseudomonas aeruginosa (ATCC 10145), Enterococcus faecalis (ATCC 19433) and Escherichia coli (ATCC 11775) were studied. For Staphylococcus aureus and Staphylococcus epidermidis, lysostafin was used as the lytic enzyme (Bur. J. Biochem., 38, 293-300, 1973). […] Further, for Pseudomonas aeruginosa and Escherichia coli, PBS containing 70 mmol/l sodium hydroxide was used. Each type of these bacteria was inoculated in 5 ml of BHI (Brain Heart Infusion) liquid medium (manufactured by DIFCO), and cultured at 37° C. for 8 hours or longer. Thus cultured bacterial liquid was collected by centrifugation at 4° C. for 10 minutes at 2,000×g. The collected bacteria were suspended in PBS to give a sample.
(§3) Lysis was evaluated by decrease in turbidity of the bacterial liquid at the absorbance of 600 nm using a microplate reader. Consequently, Staphylococcus aureus and Staphylococcus epidermidis were lysed by lysostafin. In respect of Pseudomonas aeruginosa and Escherichia coli, no enzymatic treatment was required because lysis was conducted with PBS containing 70 mmol/l sodium hydroxide. […] Moreover, when the bacterium incorporated upon phagocytotic action is for example, Pseudomonas aeruginosa, Escherichia coli or the like, bacterial cell wall is lysed during the alkaline treatment to result in the state in which the gene is exposed. Therefore, it is not necessary to conduct this enzymatic treatment. Each enzyme for the pretreatment which is used in lysis of the foreign microorganism according to the present invention is effective not only for the aforementioned bacterial strain, but also for other bacterial strain that includes other genus staphylococcus, genus streptococcus, genus bacillus, genus micrococcus and the like. […] The results are illustrated in FIG. 3, specifically, in regard to: (a) Staphylococcus aureus and Staphylococcus epidermidis, (b) Pseudomonas aeruginosa and Escherichia coli, and (c) Enterococcus faecalis.
as §1

Enterococcus faecalis = assay: Lysis evaluated by decrease in turbidity at 600 nm; assay type: cell-based
Description: as §2, §3, §1

EF digested sample = assay: Enzymatic treatment of digested sample, bacterial bodies in leukocytes by acridine orange staining; assay type: cell-based, Enterococcus faecalis; conditions: N-acetylmuramidase fixed at 100 unit/ml
Description: Using the slide glass having each digested sample smeared thereon, the enzymatic pretreatment was performed according to the process described in Example 3. Next, the slide glass after completing the enzymatic pretreatment was placed in a humid box, and the reaction was allowed by dropping 1 ml of each enzyme solution prepared to give each titer on the smeared site of the specimen. Thereafter, the slide glass was immersed in PBS containing 0.2 mol/l hydrochloric acid, and in 70% ethanol respectively, for 10 minutes, and air dried. After immersing this slide glass in PBS containing 70 mmol/l sodium hydroxide for 3 minutes, and in 70% ethanol for 10 minutes, it was air dried and stained with 1% acridine orange staining solution. Then, evaluation was made with a fluorescence microscope (×1,000). For Staphylococcus aureus and Staphylococcus epidermidis, examination of the optimal titer was conducted with lysostafin. […] The determination was made as adequate when no bacterial body was identified in the leukocytes by the enzymatic treatment.
Using a slide glass including each digested sample smeared thereon, examination was conducted according to the process described in example 17 (2). Time period of the enzymatic treatment in this test was 30 minutes, and the temperature for examination was 4° C., 25° C., 37° C., 42° C., and 60° C.
Using the slide glass including each digested sample smeared thereon, examination was conducted according to the process described in example 17 (2). […] Determination was conducted according to the process described in example 17 (2).

[2] = test system: specimen A-SA (Staphylococcus aureus); assay: In situ hybridization of clinical blood specimens of patients suspected of sepsis; assay type: cell-based; conditions: 0.25% SDS added to probe dilution solution, FIG. 1
Description: As clinical specimens, 12 specimens of blood collected from patients suspected as suffering from sepsis (specimens A to L) were used. Ten ml of heparinized venous blood was collected from each patient, and after admixing the blood with a reagent for separating blood (225 mg of sodium chloride, 1.5 g of dextran (MW: 200,000-300,000)), adjusted to give the total volume of 25 ml with sterile purified water) at a ratio of 4:1, a leukocyte fraction (upper layer) was obtained by leaving to stand still at 37° C. for 30 minutes. […] The slide glass was immersed in PBS for 10 minutes, and thereafter, in a solution of an enzyme pretreatment reagent (prepared by mixing 1.25 g of saponin, 1.25 ml of t-octylphenoxypolyethoxyethanol (specific gravity: 1.068 to 1.075 (20/4° C.), pH (5 w/v %) 5.5-7.5) and 25 ml of the PBS stock solution, and adjusting to give the total volume of 50 ml with sterile purified water) diluted to 10 fold in sterile purified water, and allowing infiltration on a shaker for 10 minutes. […] Then, it was immersed in PBS containing 0.2 mol/l hydrochloric acid (prepared by adding hydrochloric acid to the PBS stock solution, 20 fold dilution in sterile purified water, and adjusting to give the final concentration of hydrochloric acid of 0.2 mol/l) and allowed infiltration on a shaker for 10 minutes as it was. […] A probe solution without including SDS was determined as a control. […]

digested samples = assay: Influence of surfactant added to hybridization solution on signal detection; assay type: cell-based; conditions: for detection sensitivity: surfactant added to the probe dilution solution, SDS 0.25%
Description: A solution containing 15 ng of a digoxigenin labelled DNA probe prepared with a probe dilution solution (including 0.25% SDS, 600 μl of salmon sperm DNA, 50 μl of 100× Denhardt's solution, 500 μl of a hybridization stock solution, 2250 μl of formamide, 1000 μl 50% dextran sulfate) is coated on the smeared site, and the slide was left to stand still in a humid box at 37° C. to 42° C. for 2 hours. A probe solution without including SDS was determined as a control. The digoxigenin labelled DNA probe was produced by a nick translation method. Thereafter, a hybridization washing solution (prepared by mixing a hybridization stock solution (13.15 g of sodium chloride, 6.615 g of trisodium citrate dihydrate, adjusted to give the total volume of 75 ml with sterile purified water) in a ratio of the hybridization stock solution:sterile purified water:formamide=5:4:50) was provided in three staining bottles, and sequentially the sample was immersed at 42° C. for 10 minutes, respectively.
The digested samples produced according to the process described in Example 17(1) and [2] were used as specimens. […] In addition, the detection sensitivity could be improved by lauryl sarcosine, BRIJ 35 or Tween 20.

C[S+](C)[O-] [DMSO, dimethylsulfoxide]
DMSO concentration at which decrease in activity was found (Micrococcus luteus): ≥ 5% | DMSO concentration at which no decrease in enzymatic activity was found (Micrococcus luteus): ≤ 2% | DMSO concentration at which decrease in activity was found [1]: ≥ 5% | DMSO concentration at which no decrease in enzymatic activity was found [1]: ≤ 2% | influence on N-acetylmuramidase activity (Enterococcus faecalis; DMSO 0 to 10%, N-acetylmuramidase 300 unit/ml): hardly influenced

lysozyme: lytic enzyme (Seikagaku Corporation)
Decrease in turbidity of bacteria (Micrococcus luteus; added DMSO 0 % (control)): 0.689 ± 0.028 O.D./3 minutes | Decrease in turbidity of bacteria (Micrococcus luteus; added DMSO 0.1 %): 0.678 ± 0.026 O.D./3 minutes | Decrease in turbidity of bacteria (Micrococcus luteus; added DMSO 1 %): 0.660 ± 0.026 O.D./3 minutes | Decrease in turbidity of bacteria (Micrococcus luteus; added DMSO 2 %): 0.653 ± 0.024 O.D./3 minutes | Decrease in turbidity of bacteria (Micrococcus luteus; added DMSO 5 %): 0.566 ± 0.017 O.D./3 minutes | Decrease in turbidity of bacteria (Micrococcus luteus; added DMSO 10 %): 0.464 ± 0.016 O.D./3 minutes | lytic activity (Enterococcus faecalis; lysozyme in combination with N-acetylmuramidase versus N-acetylmuramidase alone, FIG. 3(c)): more excellent lytic activity | enzymatic treatment determination (EF digested sample; lysozyme titer 10 U/mL): inadequate | enzymatic treatment determination (EF digested sample; lysozyme titer 100 U/mL): inadequate | enzymatic treatment determination (EF digested sample; lysozyme titer 1,000 U/mL): inadequate | enzymatic treatment determination (EF digested sample; lysozyme titer 10,000 U/mL): adequate | enzymatic treatment determination (EF digested sample; lysozyme titer 100,000 U/mL): adequate

CCCCCCCCCCCCOS(=O)(=O)[O-].[Na+] [SDS, sodium dodecyl sulfate]
detection sensitivity of the signal [2]: markedly elevated | preferable concentration (digested samples; SDS at various concentrations): ≤ 1% | detection sensitivity (digested samples): dramatically enhanced

CCCCCCCCCCCCN(C)CC(=O)O [Lauryl sarcosine]
detection sensitivity (digested samples): improved
